From patent US20220313677A1, “METHODS FOR TREATING LIVER DISORDERS USING FXR AGONISTS” (Novartis AG, priority 2016, published 2022)
In brackets after ≈: the same amount, converted by molar mass. Entries after “also recorded” stand apart in the source; their conditions may differ.

Key:
[1] = clinical studies; cited from earlier work
[2] = tested on: rat ANIT-induced cholestasis model; experiment: Chronic treatment rat ANIT model: serum markers of cholestasis and liver damage; assay type: in vivo; settings: 14 days oral dosing; AST, ALT, bilirubin, bile acids in serum
Experimental: Rats were treated with alpha-naphthyl-isothiocyanate (ANIT) (0.1% w/w) in food for 3 days prior to treatment with the compound at the indicated doses or with vehicle control (“Veh”). A non-cholestatic control group was fed standard chow diet without ANIT, and serve as the non-cholestatic control animals (“Control”). After 14 days of oral dosing, the indicated analyte was measured in serum. LLQ, lower limit of quantitation. Mean±SEM; n=5.
(§1) Male Wistar rats were treated with ANIT (0.1% ANIT in chow diet) for 2 weeks. […] The serum samples were collected on day 14 for analysis of biomarkers of hepatobiliary injury (including ALT, AST, bilirubin and bile acids). The PK samples (pre-dose, 0.5, 1, 3, 7, 10 and 24 h, n=3/dose group) were taken on day 13 (at steady-state).

[3] = tested on: FGF15; experiment: Serum FGF15 (MSD assay) in chronic treatment rat ANIT model; assay type: in vivo
Experimental: Serum FGF15 levels were quantified using an FGF15 Meso Scale Discovery (MSD) assay. Mouse FGF15 antibody from R&D Systems (AF6755) was used both as capture and detection antibody in the assay. MSD SULFO-TAG NHS-Ester was used to label the FGF15 antibody. MSD standard 96-well plates were coated with the FGF15 capture antibody and the plates were blocked with MSD Blocker A (R93AA-2). After washing the plate with PBS+0.05% Tween 20, MSD diluent 4 was dispensed into each well and incubated for 30 min. 25 μl of calibrator dilutions or samples (serum or EDTA plasma) were dispensed into each well and incubated with shaking at RT. After washing, detection antibody was added and incubated with shaking for 1 h at RT. After washing and the addition of MSD Read buffer (R92TC-2), the plate was read on an MSD SECTOR Imager 6000. Plots of the standard curve and unknown samples were calculated using MSD data analysis software.
Activation of FXR in the ileum induces the expression of fibroblast growth factor 15 (FGF15 in rodent; FGF19 in human), a hormone that is secreted in the portal blood and signals to the liver to repress Cyp7a1 expression synergistically with SHP. The direct FXR-dependent induction of FGF15/19 along with FGF15/19's anti-cholestatic properties makes it a convenient serum biomarker for detecting target engagement of FXR agonists.

[4] = tested on: rat ANIT-induced cholestasis model; experiment: PK/PD modeling of effective exposure in rat ANIT model; assay type: in vivo; settings: for IC80 (total bilirubin): 2-week rat ANIT chronic treatment model, serum total bilirubin, Inhibitory effect Imax model
Experimental: as §1
The mean biomarker data were compared to the PK data (average concentration at each dose) for the modeling. The IC80 was determined using the Inhibitory effect Imax model (effect C=0 at Imax, C=infinity at E0) built in Phoenix WinNonlin 6.3 software. […] Therefore, we chose to use a mean of the IC80 for the four biomarkers (total bilirubin, total bile acids, ALT and AST) as the IC80 for efficacy in this model. From these studies, the IC80 of LJN452 was 0.127 ng/ml and the corresponding AUCO-24h was 3.05 ng*h/ml (Table 1), and the corresponding efficacious dose is approximately 0.01 mg/kg (based on Table 1 and Table 2).
The PK samples (pre-dose, 0.5, 1, 3, 7, 10 and 24 h, n=3/dose group) were taken on day 13 (at steady-state). AUCO-24h was determined using Phoenix WinNonlin 6.3 software and the average concentrations were calculated from mean of AUCO-24h at each dose (divided the AUCO-24h by 24 h). The individual biomarker data were compared to the PK data (average concentration at each dose) for the modeling. Since the lowest dose (0.01 mg/kg) already approached maximal efficacy, the IC80 was chosen as the measurement of the efficacious exposure (Table 1). The IC80 was determined using the Inhibitory effect Imax model (effect C=0 at Imax, C=infinity at E0) built in Phoenix WinNonlin 6.3 software.

[5] = Single oral dose plasma pharmacokinetics in healthy subjects; assay type: in vivo, human; settings: fasted, mean
[6] = Safety and tolerability in clinical study; assay type: in vivo, human
From the text: Elevated ALT resolved to within normal levels within 14 days and without intervention.

[7] = tested on: FGR5; experiment: FGR5 effects
[8] = Estimation of human efficacious dose from rat efficacious exposure and human PK; assay type: in vivo; settings: human, plasma, oral; at dose of ~6 μg; read-out: Cmax at estimated human efficacious dose
Experimental: The human efficacy dose was calculated based on the efficacious exposure in the rat ANIT-induced disease model. Since the in vitro potency and protein binding between human and rat were similar, the EC80 exposure in human was assumed to be the same as that in rat (3.05 ng*h/mL).

[9] = tested on: FGF19
[10] = Multiple oral dose plasma pharmacokinetics in healthy subjects
[11] = maximal drug effect, rat ANIT model
[12] = exposures for doses 10-100 μg normalized to 10 μg

CC[C@H]1[C@@H](O)[C@@H]2[C@H](CC[C@]3(C)[C@@H]([C@H](C)CCC(=O)O)CC[C@@H]23)[C@@]2(C)CC[C@@H](O)C[C@@H]12 [OCA, 6α-ethyl-chenodeoxycholic acid]
pruritus [1]: increased pruritus

O=C(O)c1cc(F)c2nc(N3C4CC[C@H]3CC(OCc3c(-c5ccccc5OC(F)(F)F)noc3C3CC3)C4)sc2c1 (stereo partly drawn) [Compound A, 2-[(1R,3r,5S)-3-({5-cyclopropyl-3-[2-(trifluoromethoxy)phenyl]-1,2-oxazol-4-yl}methoxy)-8-azabicyclo[3.2.1]octan-8-yl]-4-fluoro-1,3-benzothiazole-6-carboxylic acid]
dose from which hepatobiliary injury indicators improved [2]: ≥ 0.01 mg/kg
serum FGF15 [3]: stimulated serum FGF15 expression; also recorded: Significant dose-dependent induction
IC80 (total bilirubin) [4]: 0.223 ng/mL (≈ 0.369 nM)
IC80 (total bilirubin) ([4]; listed as LJN452): 8.223 ng/mL (≈ 13.6 nM)
Imax (ALT) [4, 11]: 84.2 U/L
Imax (AST) [4, 11]: 140.3 U/L
Imax (total bile acids) [4, 11]: 125.5 µmol/L
Imax (total bilirubin) [4, 11]: 2.0 mg/dL
AUCinf ([5]; single dose 10 μg): 3.39 ng·h/mL
AUClast ([5]; single dose 10 μg): 2.79 ng·h/mL
Cmax ([5]; single dose 10 μg): 0.186 ng/mL
T½ ([5]; single dose 10 μg): 14.9 h
AUCinf ([5]; single dose 30 μg): 13.4 ng·h/mL
AUClast ([5]; single dose 30 μg): 12.7 ng·h/mL
Cmax ([5]; single dose 30 μg): 0.627 ng/mL
T½ ([5]; single dose 30 μg): 13.7 h
AUCinf ([5]; single dose 100 μg): 37.9 ng·h/mL
AUClast ([5]; single dose 100 μg): 34.8 ng·h/mL
Cmax ([5]; single dose 100 μg): 1.73 ng/mL
T½ ([5]; single dose 100 μg): 13.5 h
AUCinf ([5]; single dose 300 μg): 123 ng·h/mL
AUClast ([5]; single dose 300 μg): 119 ng·h/mL
Cmax ([5]; single dose 300 μg): 6.41 ng/mL
T½ ([5]; single dose 300 μg): 15.3 h
AUCinf ([5]; single dose 1000 μg): 482 ng·h/mL
AUClast ([5]; single dose 1000 μg): 416 ng·h/mL
Cmax ([5]; single dose 1000 μg): 22.1 ng/mL
T½ ([5]; single dose 1000 μg): 21.9 h
AUCinf ([5]; single dose 3000 μg): 933 ng·h/mL
AUClast ([5]; single dose 3000 μg): 888 ng·h/mL
Cmax ([5]; single dose 3000 μg): 54.2 ng/mL
T½ ([5]; single dose 3000 μg): 16.5 h
ALP or bilirubin elevation ([6]; 100 μg repeated daily): no elevation
findings in physical exam, vital signs or ECGs ([6]; clinical study): No significant findings
tolerability in repeated daily administration ([6]; doses up to and including 60 μg): well tolerated
FGR5 effects [7]: no FGR5 effects
Cmax [8]: ~0.2 ng/mL
FGF19 elevations ([9]; 30 μg/day): consistent with pharmacological activity in NASH
FGF19 dose dependence ([9]; single dose studies 10 μg to 1 mg): Dose-dependent increases
average AUCtau at day 13 for a dose level of 10 μg [10, 12]: 4.84 ng·h/mL
average Cmax at day 13 for a dose level of 10 μg [10, 12]: 0.32 ng/mL
dose proportionality of exposure (Cmax and AUC) ([10]; once daily dosing, dose range 10 μg to 100 μg): approximately dose-proportional increase; also recorded: approximately dose proportional increase
time by which steady-state was reached ([10]; once daily oral dosing, trough levels): ≤ 4 days
